# In patent US11780850B2, “Purification of rapamycin derivatives using temperature induced phase separation” (Biosensors International Group, Ltd., priority 2013, dated 2023):
# Legend:
# [1] = Dark Control, storage at standard laboratory temperature without light; conditions: for Major Degradants, % (RT 4.5 min): HPLC RT 4.5 min; for Major Degradants, % (RT 4.9 min): HPLC RT 4.9 min; for Major Degradants, % (RT 6.2 min): HPLC RT 6.2 min; for Major Degradants, % (RT 10.4 min): HPLC RT 10.4 min; for Major Degradants, % (RT 10.7 min): HPLC RT 10.7 min; for Major Degradants, % (RT 11.0 min): HPLC RT 11.0 min; for Purity Assay, %: standard laboratory temperature, no light, duration of the study
# [2] = Oxidation study, exposure to 30% H2O2; assay type: physicochemical; conditions: 30% H2O2 for 3 hours; for weight loss after oxidative degradation (relative to a control sample): assay measurement
# Text: It is therefore apparent that amorphous BA9 is more susceptible to oxidative degradation.
# [3] = Photolysis study per ICH Q1B (photostability); conditions: for Major Degradants, % (RT 4.2 min): HPLC RT 4.2 min; for Major Degradants, % (RT 4.5 min): HPLC RT 4.5 min; for Major Degradants, % (RT 4.9 min): HPLC RT 4.9 min; for Major Degradants, % (RT 6.2 min): HPLC RT 6.2 min; for Major Degradants, % (RT 7.9 min): HPLC RT 7.9 min; for Major Degradants, % (RT 10.4 min): HPLC RT 10.4 min; for Major Degradants, % (RT 10.7 min): HPLC RT 10.7 min; for Major Degradants, % (RT 11.0 min): HPLC RT 11.0 min
# Procedure: Photolysis studies were performed on amorphous and crystalline BA9 (i.e, Form I).
# [4] = Dynamic vapor sorption (DVS) experiment; assay type: physicochemical
# Procedure: Batch profiling and polymorph screening methods. BA9 Lots 2A and 2B were purified using precipitation from n-hexanes as described above. After the purification process, Lot 2A (82.9 g) was dissolved in methanol (190 g) and precipitated by adding the methanol solution to water. The combined methanolic solution was transferred to an addition funnel and then slowly charged within 1 hour and 15 minutes into vigorously stirred water for injection (2.18 kg) in a reactor at a temperature range of 0-5° C. After completion of the addition of the methanolic solution of BA9, the resulting white suspension was stirred for an additional 15 minutes at the same temperature range. The precipitated BA9 was isolated in 84.8% yield (purity was 96.3% as determined by HPLC). The suspension was then filtered, and the isolated white solid was washed on the filter. Lot 2A was characterized by XRPD and DSC and Lot 2B was characterized by XRPD, DSC, optical microscopy, and infrared (IR) spectroscopy.
# A DVS experiment was run on Lot 2B. The increase in mass of the sample was ˜0.5% at 90% RH.
# [5] = Photolysis - VIS/UV, minimum 1.2 million lux hours and not less than 200 W·hours/m^2 per ICH Q1B
"Major Degradants, % (RT 4.5 min) [1] [%]","Major Degradants, % (RT 4.9 min) [1] [%]","Major Degradants, % (RT 6.2 min) [1] [%]","Major Degradants, % (RT 10.4 min) [1] [%]","Major Degradants, % (RT 10.7 min) [1] [%]","Major Degradants, % (RT 11.0 min) [1] [%]","Purity Assay, % [1] [%]",weight loss after oxidative degradation (relative to a control sample) [2] [%],"Major Degradants, % (RT 4.2 min) ([3]; Photolysis - VIS/UV) [%]","Major Degradants, % (RT 4.5 min) ([3]; Photolysis - VIS/UV) [%]","Major Degradants, % (RT 4.9 min) ([3]; Photolysis - VIS/UV) [%]","Major Degradants, % (RT 6.2 min) ([3]; Photolysis - VIS/UV) [%]","Major Degradants, % (RT 7.9 min) ([3]; Photolysis - VIS/UV) [%]","Major Degradants, % (RT 10.4 min) ([3]; Photolysis - VIS/UV) [%]","Major Degradants, % (RT 10.7 min) ([3]; Photolysis - VIS/UV) [%]","Major Degradants, % (RT 11.0 min) ([3]; Photolysis - VIS/UV) [%]","Purity Assay, % [3, 5] [%]","Purity Assay, % ([3]; T = 0 Control) [%]",Compound,also measured
0.72,0.31,0.20,0.44,1.40,0.39,88.2,6.5,1.30,7.40,1.20,2.50,2.20,1.70,0.94,2.60,16.3,98.0,"CCOCCOC1CCC(CC(C)C2CC(=O)C(C)C=C(C)C(O)C(OC)C(=O)C(C)CC(C)C=CC=CC=C(C)C(OC)CC3CCC(C)C(O)(O3)C(=O)C(=O)N3CCCCC3C(=O)O2)CC1OC (centres unmarked) [Amorphous BA9, 40-O-(2-ethoxyethyl) rapamycin]","Purity Assay, % ([1]; listed as amorphous BA9): 88.2%; Purity Assay, % ([3]; Photolysis - VIS/UV, minimum 1.2 million lux hours and not less than 200 W·hours/m^2 per ICH Q1B, listed as amorphous BA9): 16.3%"
0.08,0.41,0.09,0.03,0.06,0.67,98.0,3.4,0.76,2.00,2.60,0.94,0.07,0.15,0.69,0.51,70.2,97.7,"CCOCCOC1CCC(CC(C)C2CC(=O)C(C)C=C(C)C(O)C(OC)C(=O)C(C)CC(C)C=CC=CC=C(C)C(OC)CC3CCC(C)C(O)(O3)C(=O)C(=O)N3CCCCC3C(=O)O2)CC1OC (centres unmarked) [Crystalline BA9, 40-O-(2-ethoxyethyl) rapamycin]","Major Degradants, % (RT 4.2 min) ([1]; HPLC RT 4.2 min): 0.01%; Purity Assay, % ([1]; listed as crystalline BA9): 98.0%; solid form of post DVS sample by XRPD ([4]; after DVS experiment): confirmed as Form I; increase in mass of the sample ([4]; at 90% RH): ~0.5%; levels of major degradants after oxidative degradation (vs amorphous BA9) ([2]; HPLC): lower levels of major degradants overall; Purity Assay, % ([3]; Photolysis - VIS/UV, minimum 1.2 million lux hours and not less than 200 W·hours/m^2 per ICH Q1B, listed as crystalline BA9): 70.2%"
